# Measured values published in US20230365592A1 (Agios Pharmaceuticals, Inc., priority 2022, published 2023).
# Target: T1, human PAH with the R408W mutation (Homo sapiens, UniProt P00439, R408W)
# T1 construct: expressed in transfected cells
# T1 sequence (P00439 1-452 R408W): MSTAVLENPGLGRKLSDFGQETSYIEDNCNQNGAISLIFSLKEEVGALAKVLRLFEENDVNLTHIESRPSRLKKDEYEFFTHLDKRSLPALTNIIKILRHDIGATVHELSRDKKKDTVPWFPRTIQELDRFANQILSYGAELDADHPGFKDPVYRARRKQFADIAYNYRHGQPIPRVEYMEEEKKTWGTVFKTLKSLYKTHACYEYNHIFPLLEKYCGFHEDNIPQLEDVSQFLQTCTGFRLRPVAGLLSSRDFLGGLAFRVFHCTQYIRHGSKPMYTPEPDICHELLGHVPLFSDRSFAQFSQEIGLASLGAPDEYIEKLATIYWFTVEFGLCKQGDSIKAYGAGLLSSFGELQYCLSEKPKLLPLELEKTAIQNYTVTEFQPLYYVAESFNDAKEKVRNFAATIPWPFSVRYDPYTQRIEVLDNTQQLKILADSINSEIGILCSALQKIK
# Assay: Cell Based Phenylalanine Flux Assay;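 also: after compound treatment, cells received sepiapterin plus isotope-labelled Phenylalanine for 4 hours, then labelled Tyrosine in the medium was quantified, 10-point 2-fold dilution series run in duplicate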
# Conditions: A375 cells expressing human R408W PAH; 24 hrs compound incubation; 13C-Tyrosine by LC-MS; average where tested multiple times; read-out: AC50
row,SMILES,AC50 [µM]
1,"Cc1cccn2nc([C@@H]3c4nc[nH]c4CCN3C(=O)c3oc(C(C)(C)O)nc3C(F)F)cc12 [Example 736, (S)-(4-(difluoromethyl)-2-(2-hydroxypropan-2-yl)oxazol-5-yl)(4-(4-methylpyrazolo[1,5-a]pyridin-2-yl)-6,7-dihydro-1H-imidazo[4,5-c]pyridin-5(4H)-yl)methanone]",< 0.5
2,"Cc1cccn2nc([C@H]3c4nc[nH]c4CCN3C(=O)c3oc(C(C)(C)O)nc3C(F)F)cc12 [Example 737, (R)-(4-(difluoromethyl)-2-(2-hydroxypropan-2-yl)oxazol-5-yl)(4-(4-methylpyrazolo[1,5-a]pyridin-2-yl)-6,7-dihydro-1H-imidazo[4,5-c]pyridin-5(4H)-yl)methanone]",1 to 5
3,"Cc1cccn2nc([C@@H]3c4nc[nH]c4CCN3C(=O)c3oc([C@@H](C)O)nc3C(F)F)cc12 [Example 738, (4-(difluoromethyl)-2-((R)-1-hydroxyethyl)oxazol-5-yl)((S)-4-(4-methylpyrazolo[1,5-a]pyridin-2-yl)-6,7-dihydro-1H-imidazo[4,5-c]pyridin-5(4H)-yl)methanone]",< 0.5
4,"Cc1cccn2nc([C@H]3c4nc[nH]c4CCN3C(=O)c3oc([C@@H](C)O)nc3C(F)F)cc12 [Example 739, (4-(difluoromethyl)-2-((R)-1-hydroxyethyl)oxazol-5-yl)((R)-4-(4-methylpyrazolo[1,5-a]pyridin-2-yl)-6,7-dihydro-1H-imidazo[4,5-c]pyridin-5(4H)-yl)methanone]",1 to 5
5,"Cc1cccn2nc([C@H]3c4nc[nH]c4CCN3C(=O)c3nnc(-c4ccccn4)o3)cc12 [Example 740, (R)-(4-(4-methylpyrazolo[1,5-a]pyridin-2-yl)-6,7-dihydro-1H-imidazo[4,5-c]pyridin-5(4H)-yl)(5-(pyridin-2-yl)-1,3,4-oxadiazol-2-yl)methanone]",> 5
6,"Cc1cccn2nc([C@@H]3c4nc[nH]c4CCN3C(=O)c3nnc(-c4ccccn4)o3)cc12 [Example 741, (S)-(4-(4-methylpyrazolo[1,5-a]pyridin-2-yl)-6,7-dihydro-1H-imidazo[4,5-c]pyridin-5(4H)-yl)(5-(pyridin-2-yl)-1,3,4-oxadiazol-2-yl)methanone]",< 0.5
7,"Cc1cccn2nc([C@@H]3c4nc[nH]c4CCN3C(=O)c3nnc(-c4ccn(C)n4)o3)cc12 [Example 743, (S)-(5-(1-methyl-1H-pyrazol-3-yl)-1,3,4-oxadiazol-2-yl)(4-(4-methylpyrazolo[1,5-a]pyridin-2-yl)-6,7-dihydro-1H-imidazo[4,5-c]pyridin-5(4H)-yl)methanone]",< 0.5
8,"CC(C)(O)c1nc(C(F)(F)F)c(C(=O)N2CCc3[nH]cnc3[C@@H]2c2cc3c(F)cccn3n2)o1 [Example 745, (R)-(4-(4-fluoropyrazolo[1,5-a]pyridin-2-yl)-6,7-dihydro-1H-imidazo[4,5-c]pyridin-5(4H)-yl)(2-(2-hydroxypropan-2-yl)-4-(trifluoromethyl)oxazol-5-yl)methanone]",1 to 5
9,"CC(C)(O)c1nc(Br)c(C(=O)N2CCc3[nH]cnc3[C@H]2c2cc3c(F)cccn3n2)o1 [Example 746, (S)-(4-bromo-2-(2-hydroxypropan-2-yl)oxazol-5-yl)(4-(4-fluoropyrazolo[1,5-a]pyridin-2-yl)-6,7-dihydro-1H-imidazo[4,5-c]pyridin-5(4H)-yl)methanone]",< 0.5
10,"CC(C)(O)c1nc(Br)c(C(=O)N2CCc3[nH]cnc3[C@@H]2c2cc3c(F)cccn3n2)o1 [Example 747, (R)-(4-bromo-2-(2-hydroxypropan-2-yl)oxazol-5-yl)(4-(4-fluoropyrazolo[1,5-a]pyridin-2-yl)-6,7-dihydro-1H-imidazo[4,5-c]pyridin-5(4H)-yl)methanone]",> 5
11,"Cc1cccn2nc([C@@H]3c4nc[nH]c4CCN3C(=O)c3nnc(-c4cnn(C)c4)o3)cc12 [Example 748, (S)-(5-(1-methyl-1H-pyrazol-4-yl)-1,3,4-oxadiazol-2-yl)(4-(4-methylpyrazolo[1,5-a]pyridin-2-yl)-6,7-dihydro-1H-imidazo[4,5-c]pyridin-5(4H)-yl)methanone]",< 0.5
12,"Cc1cccn2nc([C@H]3c4nc[nH]c4CCN3C(=O)c3nnc(-c4cnn(C)c4)o3)cc12 [Example 749, (R)-(5-(1-methyl-1H-pyrazol-4-yl)-1,3,4-oxadiazol-2-yl)(4-(4-methylpyrazolo[1,5-a]pyridin-2-yl)-6,7-dihydro-1H-imidazo[4,5-c]pyridin-5(4H)-yl)methanone]",> 5
13,"Cc1nc([C@H](C)O)oc1C(=O)N1CCc2[nH]cnc2[C@H]1c1cc2c(C)cccn2n1 [Example 750, (2-((S)-1-hydroxyethyl)-4-methyloxazol-5-yl)((S)-4-(4-methylpyrazolo[1,5-a]pyridin-2-yl)-6,7-dihydro-1H-imidazo[4,5-c]pyridin-5(4H)-yl)methanone]",< 0.5
14,"Cc1nc([C@@H](C)O)oc1C(=O)N1CCc2[nH]cnc2[C@H]1c1cc2c(C)cccn2n1 [Example 752, (2-((R)-1-hydroxyethyl)-4-methyloxazol-5-yl)((S)-4-(4-methylpyrazolo[1,5-a]pyridin-2-yl)-6,7-dihydro-1H-imidazo[4,5-c]pyridin-5(4H)-yl)methanone]",< 0.5
15,"Cc1nc([C@@H](C)O)oc1C(=O)N1CCc2[nH]cnc2[C@@H]1c1cc2c(C)cccn2n1 [Example 753, (2-((R)-1-hydroxyethyl)-4-methyloxazol-5-yl)((R)-4-(4-methylpyrazolo[1,5-a]pyridin-2-yl)-6,7-dihydro-1H-imidazo[4,5-c]pyridin-5(4H)-yl)methanone]",1 to 5
16,"Cc1nc(C(C)(C)O)oc1C(=O)N1CCc2[nH]cnc2[C@H]1c1cc2c(C)cccn2n1 [Example 754, (S)-(2-(2-hydroxypropan-2-yl)-4-methyloxazol-5-yl)(4-(4-methylpyrazolo[1,5-a]pyridin-2-yl)-6,7-dihydro-1H-imidazo[4,5-c]pyridin-5(4H)-yl)methanone]",< 0.5
17,"CC(C)(O)c1nc(Cl)c(C(=O)N2CCc3[nH]cnc3[C@H]2c2cc3c(F)cccn3n2)o1 [Example 756, (S)-(4-chloro-2-(2-hydroxypropan-2-yl)oxazol-5-yl)(4-(4-fluoropyrazolo[1,5-a]pyridin-2-yl)-6,7-dihydro-1H-imidazo[4,5-c]pyridin-5(4H)-yl)methanone]",< 0.5
18,"CC(C)(O)c1nc(Cl)c(C(=O)N2CCc3[nH]cnc3[C@@H]2c2cc3c(F)cccn3n2)o1 [Example 757, (R)-(4-chloro-2-(2-hydroxypropan-2-yl)oxazol-5-yl)(4-(4-fluoropyrazolo[1,5-a]pyridin-2-yl)-6,7-dihydro-1H-imidazo[4,5-c]pyridin-5(4H)-yl)methanone]",1 to 5

# Continued, values first:
row,AC50 [µM],SMILES
1,< 0.5,"O=C(c1ocnc1C(F)F)N1CCc2[nH]cnc2[C@H]1c1cc2c(F)cccn2n1 [Example 758, (S)-(4-(difluoromethyl)oxazol-5-yl)(4-(4-fluoropyrazolo[1,5-a]pyridin-2-yl)-6,7-dihydro-1H-imidazo[4,5-c]pyridin-5(4H)-yl)methanone]"
2,1 to 5,"O=C(c1ocnc1C(F)F)N1CCc2[nH]cnc2[C@@H]1c1cc2c(F)cccn2n1 [Example 759, (R)-(4-(difluoromethyl)oxazol-5-yl)(4-(4-fluoropyrazolo[1,5-a]pyridin-2-yl)-6,7-dihydro-1H-imidazo[4,5-c]pyridin-5(4H)-yl)methanone]"
3,1 to 5,"O=C(c1cnco1)N1CCc2[nH]cnc2[C@H]1c1cc2c(F)cccn2n1 [Example 760, (S)-(4-(4-fluoropyrazolo[1,5-a]pyridin-2-yl)-6,7-dihydro-1H-imidazo[4,5-c]pyridin-5(4H)-yl)(oxazol-5-yl)methanone]"
4,1 to 5,"O=C(c1cnco1)N1CCc2[nH]cnc2[C@@H]1c1cc2c(F)cccn2n1 [Example 761, (R)-(4-(4-fluoropyrazolo[1,5-a]pyridin-2-yl)-6,7-dihydro-1H-imidazo[4,5-c]pyridin-5(4H)-yl)(oxazol-5-yl)methanone]"
5,< 0.5,"Cn1nc(Cl)nc1C(=O)N1CCc2[nH]cnc2[C@H]1c1cc2c(F)cccn2n1 [Example 762, (S)-(3-chloro-1-methyl-1H-1,2,4-triazol-5-yl)(4-(4-fluoropyrazolo[1,5-a]pyridin-2-yl)-6,7-dihydro-1H-imidazo[4,5-c]pyridin-5(4H)-yl)methanone]"
6,1 to 5,"Cn1nc(Cl)nc1C(=O)N1CCc2[nH]cnc2[C@@H]1c1cc2c(F)cccn2n1 [Example 763, (R)-(3-chloro-1-methyl-1H-1,2,4-triazol-5-yl)(4-(4-fluoropyrazolo[1,5-a]pyridin-2-yl)-6,7-dihydro-1H-imidazo[4,5-c]pyridin-5(4H)-yl)methanone]"
7,0.5 to 1,"Cn1nc(C(F)F)nc1C(=O)N1CCc2[nH]cnc2[C@H]1c1cc2c(F)cccn2n1 [Example 764, (S)-(3-(difluoromethyl)-1-methyl-1H-1,2,4-triazol-5-yl)(4-(4-fluoropyrazolo[1,5-a]pyridin-2-yl)-6,7-dihydro-1H-imidazo[4,5-c]pyridin-5(4H)-yl)methanone]"
8,1 to 5,"Cn1nc(C(F)F)nc1C(=O)N1CCc2[nH]cnc2[C@@H]1c1cc2c(F)cccn2n1 [Example 765, (R)-(3-(difluoromethyl)-1-methyl-1H-1,2,4-triazol-5-yl)(4-(4-fluoropyrazolo[1,5-a]pyridin-2-yl)-6,7-dihydro-1H-imidazo[4,5-c]pyridin-5(4H)-yl)methanone]"
